This passage reports EC50 results from patent publication US10934282B2, “Heteroaromatic modulators of the retinoid-related orphan receptor gamma” (LEO PHARMA A/S, priority 2016, dated 2021).

For assay [1], the system named is IL-17A levels in human peripheral blood. The assay can be described thus: tissue or blood. Format: cell-based. The conditions noted are these: 72 h, read-out: Human Whole blood IL-17A (nM).
The subject of assay [2] is IL-17A in Human peripheral mononuclear cells. The assay can be described thus: Human PBMC IL-17A assay. Particulars: 72 h, EC50, antiCD3/antiCD28-coated beads, 3 days, alpha-LISA. Format: cell-based. The essentials:
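Cryopreserved human PBMC (130,000/well) stimulated with anti-CD3/anti-CD28-coated beads (1 cell per bead) in RPMI-1640 with 10% bovine calf serum, compounds at 0.1% DMSO, for 3 days. Supernatant IL-17A measured by AlphaLISA, viability by PrestoBlue; EC50 from 4-parameter non-linear regression.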
Background: In Alpha technology, singlet oxygen from a donor bead excites a nearby acceptor bead.

The target in assay [3] is T1, human RORgt nuclear receptor (RORgT ligand binding domain protein) (Homo sapiens, UniProt P51449).
T1 construct: purchased Proteros Biostructures GmbH
T1 sequence (P51449 with tags, fused parts or gaps): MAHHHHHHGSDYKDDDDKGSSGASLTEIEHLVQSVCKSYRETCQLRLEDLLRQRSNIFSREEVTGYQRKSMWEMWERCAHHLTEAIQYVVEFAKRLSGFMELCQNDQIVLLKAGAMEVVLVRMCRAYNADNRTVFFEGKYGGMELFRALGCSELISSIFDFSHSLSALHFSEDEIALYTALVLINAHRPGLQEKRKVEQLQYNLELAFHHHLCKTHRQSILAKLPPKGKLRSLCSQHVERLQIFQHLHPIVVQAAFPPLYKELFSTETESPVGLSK
Description: ROR-gamma binding assay (Scintillation Proximity Assay, displacement of [3H]-25-hydroxycholesterol). Particulars: EC50, SPA, 15 nM [3H]-25-Hydroxycholesterol, RORgT LBD 12 nM. The essentials: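 SPA competition of compound against 15 nM [3H]-25-hydroxycholesterol for His/FLAG-tagged human RORγt LBD (12 nM) on His-tag PVT beads, in 50 mM HEPES pH 7.4, 150 mM NaCl, 5 mM MgCl2, 0.1% BSA, 0.5% DMSO. 30 min preincubation, then ≥4 h at room temperature in darkness; EC50 by four-parameter fit.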

Where a name gives a salt, the structure may show the parent alone.

For the molecule `Cc1c(CN2CCN(C(=O)OC(C)C)[C@@H](C)C2)cc(C(F)F)cc1Nc1nnc([C@H](C)O)o1` [Example 43, isopropyl (2S)-4-[[5-(difluoromethyl)-3-[[5-[(1S)-1-hydroxyethyl]-1,3,4-oxadiazol-2-yl]amino]-2-methyl-phenyl]methyl]-2-methyl-piperazine-1-carboxylate], the EC50 in assay [1] was 332 nM; in assay [2], 63.5 nM; in assay [3], 53.9 nM.
With `Cc1c(CN2CCN(C(=O)OC(C)C)[C@@H](C)C2)cc(Cl)cc1Nc1nnc(C2CCCOC2)o1` (stereo partly drawn) [Example 44, isopropyl (2S)-4-[[5-chloro-2-methyl-3-[(5-tetrahydropyran-3-yl-1,3,4-oxadiazol-2-yl)amino]phenyl]methyl]-2-methyl-piperazine-1-carboxylate], the EC50 turned out to be 330 nM in assay [1], 26 nM in assay [2] and 22.7 nM in assay [3].
On to `Cc1c(CN2CCN(C(=O)OC(C)C)[C@@H](C)C2)cc(Cl)cc1Nc1nnc(C2(O)CC2)o1` [Example 45, isopropyl (2S)-4-[[5-chloro-3-[[5-(1-hydroxycyclopropyl)-1,3,4-oxadiazol-2-yl]amino]-2-methyl-phenyl]methyl]-2-methyl-piperazine-1-carboxylate], for which the EC50 in assay [1] was 330 nM; in assay [2], 39.9 nM; in assay [3], 42 nM.
Turning to `Cc1c(CN2CCN(C(=O)OC(C)C)[C@@H](C)C2)cc(Cl)cc1Nc1nnc(C2(CO)CC2)o1` [Example 46, isopropyl (2S)-4-[[5-chloro-3-[[5-[1-(hydroxymethyl)cyclopropyl]-1,3,4-oxadiazol-2-yl]amino]-2-methyl-phenyl]methyl]-2-methyl-piperazine-1-carboxylate], the EC50 in assay [1] is 322 nM; in assay [2], 103 nM; in assay [3] it was 37.1 nM.
For the molecule `Cc1c(CN2CCN(C(=O)OC(C)C)[C@@H](C)C2)cc(Cl)cc1Nc1nnc(C(O)C(F)(F)F)o1` (stereo partly drawn) [Example 47, isopropyl (2S)-4-[[5-chloro-2-methyl-3-[[5-(2,2,2-trifluoro-1-hydroxy-ethyl)-1,3,4-oxadiazol-2-yl]amino]phenyl]methyl]-2-methyl-piperazine-1-carboxylate], the EC50 is 307 nM in assay [1], 63.2 nM in assay [2] and 26.6 nM in assay [3].
With `Cc1c(CN2CCN(C(=O)OC(C)C)[C@@H](C)C2)cc(Cl)cc1Nc1nnc(C2CCNC2=O)o1` (stereo partly drawn) [Example 48, isopropyl (2S)-4-[[5-chloro-2-methyl-3-[[5-(2-oxopyrrolidin-3-yl)-1,3,4-oxadiazol-2-yl]amino]phenyl]methyl]-2-methyl-piperazine-1-carboxylate], the results for the EC50 in assay [1], in assay [2] and in assay [3] were 296 nM, 191 nM and 37.2 nM, respectively.
For the molecule `Cc1cc(CN2CCN(C(=O)OC(C)C)[C@@H](C)C2)c(C)c(Nc2nnc([C@H](C)N)o2)c1` [Example 49, isopropyl (2S)-4-[[3-[[5-[(1S)-1-aminoethyl]-1,3,4-oxadiazol-2-yl]amino]-2,5-dimethyl-phenyl]methyl]-2-methyl-piperazine-1-carboxylate], the EC50 came to 275 nM in assay [1], 218 nM in assay [2] and 90.5 nM in assay [3].
On to `Cc1c(CN2CCN(C(=O)OC(C)C)[C@@H](C)C2)cc(C(F)F)cc1Nc1nnc([C@@H](C)O)o1` [Example 50, isopropyl (2S)-4-[[5-(difluoromethyl)-3-[[5-[(1R)-1-hydroxyethyl]-1,3,4-oxadiazol-2-yl]amino]-2-methyl-phenyl]methyl]-2-methyl-piperazine-1-carboxylate], for which the EC50 in assay [1] was found to be 272 nM; in assay [2] it was 86.5 nM; in assay [3] it was 31.6 nM.
For `Cc1cc(CN2CCN(C(=O)OC(C)C)[C@@H](C)C2)c(C)c(Nc2nnc(C3CNC(=O)C3)o2)c1` (stereo partly drawn) [Example 51, isopropyl (2S)-4-[[2,5-dimethyl-3-[[5-(5-oxopyrrolidin-3-yl)-1,3,4-oxadiazol-2-yl]amino]phenyl]methyl]-2-methyl-piperazine-1-carboxylate] the same measures were 266 nM, 216 nM and 64.4 nM.
For `Cc1cc(CN2CCN(C(=O)OC(C)C)[C@@H](C)C2)c(C)c(Nc2nnc([C@@H]3CNC(=O)O3)o2)c1` [Example 52, isopropyl (2S)-4-[[2,5-dimethyl-3-[[5-[(5S)-2-oxooxazolidin-5-yl]-1,3,4-oxadiazol-2-yl]amino]phenyl]methyl]-2-methyl-piperazine-1-carboxylate] the same measures were 256 nM, 134 nM and 42.1 nM.
For `Cc1c(CN2CCN(C(=O)OC(C)C)[C@@H](C)C2)cc(Cl)cc1Nc1nnc([C@@H]2CC(=O)N2)o1` [Example 53, isopropyl (2S)-4-[[5-chloro-2-methyl-3-[[5-[(2S)-4-oxoazetidin-2-yl]-1,3,4-oxadiazol-2-yl]amino]phenyl]methyl]-2-methyl-piperazine-1-carboxylate] the same measures were 247 nM, 93.9 nM and 68.2 nM.
As to `Cc1cc(CN2CCN(C(=O)OC(C)C)[C@@H](C)C2)c(C)c(Nc2nnc(-c3nonc3C)o2)c1` [Example 54, isopropyl (2S)-4-[[2,5-dimethyl-3-[[5-(4-methyl-1,2,5-oxadiazol-3-yl)-1,3,4-oxadiazol-2-yl]amino]phenyl]methyl]-2-methyl-piperazine-1-carboxylate], the EC50 in assay [1] is 176 nM; in assay [2], 28.1 nM; in assay [3], 16.3 nM.
Turning to `Cc1cc(CN2CCN(C(=O)OC(C)C)[C@@H](C)C2)c(C)c(Nc2nnc([C@@H]3COCCN3)o2)c1` [Example 55, isopropyl (2S)-4-[[2,5-dimethyl-3-[[5-[(3S)-morpholin-3-yl]-1,3,4-oxadiazol-2-yl]amino]phenyl]methyl]-2-methyl-piperazine-1-carboxylate dihydrochloride], the EC50 in assay [1] was 36.8 nM; in assay [2] it was 62.3 nM; in assay [3] it was 39 nM.
Consider `Cc1cc(CN2CCN(C(=O)OC(C)C)[C@@H](C)C2)c(C)c(Nc2nnc([C@@H](C)O)o2)c1` [Example 56, isopropyl (2S)-4-[[3-[[5-[(1R)-1-hydroxyethyl]-1,3,4-oxadiazol-2-yl]amino]-2,5-dimethyl-phenyl]methyl]-2-methyl-piperazine-1-carboxylate], for which the EC50 in assay [1] stood at 92.2 nM; in assay [2], 51.9 nM; in assay [3], 36.5 nM.
With `Cc1cc(CN2CCN(C(=O)OC(C)C)[C@@H](C)C2)c(C)c(Nc2nnc(C[C@@H](O)C(F)(F)F)o2)c1` [Example 57, isopropyl (2S)-4-[[2,5-dimethyl-3-[[5-[(2R)-3,3,3-trifluoro-2-hydroxy-propyl]-1,3,4-oxadiazol-2-yl]amino]phenyl]methyl]-2-methyl-piperazine-1-carboxylate], the EC50 in assay [1] stood at 96.7 nM; in assay [2] it was 46.5 nM; in assay [3], 23.8 nM.
For `Cc1cc(CN2CCN(C(=O)OC(C)C)[C@@H](C)C2)c(C)c(Nc2nnc(C3CCNC(=O)C3)o2)c1` (stereo partly drawn) [Example 58, isopropyl (2S)-4-[[2,5-dimethyl-3-[[5-(2-oxo-4-piperidyl)-1,3,4-oxadiazol-2-yl]amino]phenyl]methyl]-2-methyl-piperazine-1-carboxylate], the results for the EC50 in assay [1], in assay [2] and in assay [3] were 215 nM, 373 nM and 54.4 nM, respectively.
Consider `Cc1cc(CN2CCN(C(=O)OC(C)C)[C@@H](C)C2)c(C)c(Nc2nnc(-c3ccnn3C)o2)c1` [Example 59, isopropyl (2S)-4-[[2,5-dimethyl-3-[[5-(2-methylpyrazol-3-yl)-1,3,4-oxadiazol-2-yl]amino]phenyl]methyl]-2-methyl-piperazine-1-carboxylate], for which the EC50 is 211 nM in assay [1], 123 nM in assay [2] and 25.7 nM in assay [3].
For `Cc1cc(CN2CCN(C(=O)OC(C)C)[C@@H](C)C2)c(C)c(Nc2nnc(C[C@H](C)O)o2)c1` [Example 60, isopropyl (2S)-4-[[3-[[5-[(2S)-2-hydroxypropyl]-1,3,4-oxadiazol-2-yl]amino]-2,5-dimethyl-phenyl]methyl]-2-methyl-piperazine-1-carboxylate] the same measures were 195 nM, 106 nM and 38.3 nM.
`Cc1cc(CN2CCN(C(=O)OC(C)C)[C@@H](C)C2)c(C)c(Nc2nnc(C[C@@H](C)O)o2)c1` [Example 61, isopropyl (2S)-4-[[3-[[5-[(2R)-2-hydroxypropyl]-1,3,4-oxadiazol-2-yl]amino]-2,5-dimethyl-phenyl]methyl]-2-methyl-piperazine-1-carboxylate]: the results for the EC50 in assay [1], in assay [2] and in assay [3] were 101 nM, 106 nM and 42.3 nM, respectively.
Consider `CC[C@H](O)c1nnc(Nc2cc(C)cc(CN3CCN(C(=O)OC(C)C)[C@@H](C)C3)c2C)o1` [Example 62, isopropyl (2S)-4-[[3-[[5-[(1S)-1-hydroxypropyl]-1,3,4-oxadiazol-2-yl]amino]-2,5-dimethyl-phenyl]methyl]-2-methyl-piperazine-1-carboxylate], for which the EC50 in assay [1] worked out at 103 nM; in assay [2], 67.6 nM; in assay [3] it was 20.7 nM.
